Reference: paper PMC10844353, “Dose–response effects on HbA1c and bodyweight reduction of survodutide, a dual glucagon/GLP-1 receptor agonist, compared with placebo and open-label semaglutide in people with type 2 diabetes: a randomised clinical trial” (Diabetologia, 2023)
Each block holds one substance with its values, some of them ahead of it.

Columns and labels:
[1] = Phase II trial: pharmacokinetics (steady state, dose proportionality of trough concentrations); type: in vivo, human
Description: The attainment of steady state and dose proportionality of survodutide were assessed as pharmacokinetic endpoints.
(§1) HbA1c was assessed at screening, weeks 1, 5, 8, 12 and 16, EoT and follow-up and analysed centrally. Bodyweight was measured at every visit (screening, weeks 1–8, 12 and 16, EoT and follow-up). Waist circumference was measured at screening, weeks 1 and 6 and EoT. Waist circumference was measured at the midpoint between the lowest rib and the iliac crest. Participants were provided with a glucose monitoring device for weekly use at home during the study. Participant-reported outcomes (Three-Factor Eating Questionnaire [TFEQ-R18 V2], Patient Global Impression of Severity [PGI-S] and a hunger visual analogue scale [VAS]) were assessed at weeks 1, 5 and 8 and EoT in a fasted state. Blood sampling for pharmacokinetics was carried out at every visit (weeks 1–8, 12 and 16, EoT and follow-up) and blood sampling for exploratory biomarkers was carried out at weeks 1, 5, 8 and 12, EoT and follow-up. Safety assessments are described in the ESM Methods.

[2] = tested on: participants with type 2 diabetes; test: Phase II trial: adverse events (safety and tolerability); type: in vivo, human; conditions: up to 1.0 mg qw open-label
Description: (VAS), the Patient’s Global Impression of Severity (PGI-S) for difficulty to control eating behaviours and the 7-point profile of self-monitoring of blood glucose (SMBG).
At each study visit, participants were advised to adhere to the specific recommended diet and exercise plan provided to them during diet and exercise counselling throughout the study.
Survodutide was made available in vials (2 mg/ml, 1 ml fill volume per vial) for dose escalation in Weeks 1–6 and in pre-filled syringes (various concentrations, 0.5 ml fill volume) for maintenance dose in Weeks 7–16. The placebo solution (isotonic sodium chloride) was filled into identical vials or pre-filled syringes. […]
Safety and tolerability were assessed based on the general occurrence of treatment -emergent adverse even ts, safety laboratory parameters, physical examination, vital sign measurements and 12 -lead ECG . ECG services were externally provided and recordings were evaluated centrally.
(§2) MMRM, as for the primary endpoint, and descriptive statistics. All safety endpoints, NASH-related scores and SMBG were analysed descriptively. […]

[3] = tested on: participants with type 2 diabetes; test: Phase II trial: exploratory biomarkers and NASH-related scores, change from baseline at EoT; type: in vivo, human; conditions: up to 1.0 mg qw open-label, after 16 weeks
Excerpt: Pharmacodynamic endpoints were the changes from baseline in exploratory biomarkers related to liver function and fatty liver disease (plasma levels of cytokeratin 18 and Pro-C3 and enhanced liver fibrosis [ELF] score), glucose metabolism (adiponectin and fasting insulin and C-peptide levels) and target receptor engagement (amino acid and glucagon levels). Exploratory NASH-related scores (Fibrosis-4 [Fib-4] score, aspartate aminotransferase/platelet ratio [APRI] and non-alcoholic fatty liver disease [NAFLD] fibrosis score) were assessed as safety-related endpoints.
as §1, with “Blood sampling for pharmacokinetics was carried out at every visit (weeks 1–8, 12 and 16, EoT and follow-up) and blood sampling for exploratory biomarkers was carried out at weeks 1, 5, 8 and 12, EoT and follow-up. Safety assessments are described in the ESM Methods.” left out
as §2

[4] = tested on: people with type 2 diabetes or overweight/obesity; conditions: AWARD-5, 52 weeks; cited from earlier work
Excerpt: Glucagon-like peptide-1 receptor (GLP-1R) agonists, such as liraglutide and semaglutide, have been developed for the treatment of both type 2 diabetes and obesity. […] Apart from the well-characterised gastrointestinal (GI) adverse events (AEs), GLP-1R agonists are generally well tolerated. ... || Survodutide (BI 456906) is a novel subcutaneous GCGR/GLP-1R dual agonist in development for the treatment of people with type 2 diabetes, obesity and non-alcoholic steatohepatitis (NASH). Addition of a C18 fatty acid into the acylated peptide, as a half-life-extending principle, allows for weekly administration of survodutide. […] In ... || In addition to semaglutide, other GLP-1R agonists now approved for the treatment of type 2 diabetes have been investigated in combination with background metformin therapy. […] The maximum reduct ... || (+ 2 further places)

[5] = in vivo; cited from earlier work

- Time at which steady state appeared to be achieved (visually) ([1]; DG1–5, plasma trough concentrations): 8 week
- Time at which steady state appeared to be achieved (visually) ([1]; DG6, plasma trough concentrations): 12 week
- Dose proportionality of plasma trough concentrations ([1]; escalating weekly or biweekly sc doses): approximately dose-proportional
Substance: Survodutide

Substance: Semaglutide: GLP-1R agonist; open-label reference control, up to 1.0 mg qw
- Participants reporting severe AEs [2]: none
- Change from baseline in glucagon [3]: no relevant changes

Substance: dulaglutide: GLP-1R agonist approved for the treatment of type 2 diabetes
- Bodyweight reduction [4]: –3.1 kg

Substance: oxyntomodulin: endogenous proglucagon derivative, GCGR/GLP-1R dual agonist
- Half-life [5]: very short
